Test results: PubChem BioAssay AID2124 (Sanford-Burnham Center for Chemical Genomics, 2009)
Inconclusive results are not listed. Calls of active or inactive are those of the source. The rule behind the calls is not given here; tested in MIN6 cells.

Experiment: cell-permeable autofluorescent compounds in GFP channel, dose response, artefact control, imaging, high-content imaging (AID 2124);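 note: cells exposed to compound for 48 hours before fixing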
Conditions: cells, GFP-channel autofluorescence, high-content imaging, at 10 µM; for z-score: stronger effect = higher value

## COc1ccccc1N1CCN(C/C(O)=C(\C#N)c2nc(-c3ccccc3)cs2)CC1
  z-score: -0.38 (inactive)
  cell count: 3090 cells

## Cc1cc(/C=C2\NC(=S)N(C)C2=O)ccc1N1CCCC1
  z-score: 0.07
  cell count: 2980 cells

## COc1cc(OC)cc(C(=O)Nc2cccc(C(C)=O)c2)c1
  z-score: -0.39 (inactive)
  cell count: 3260 cells

## O=C(NCc1cn2ccccc2n1)c1ccco1
  z-score: -0.33 (inactive)
  cell count: 3100 cells

## Cc1ccc(C2(C(F)(F)F)N=C3Sc4cc(C)ccc4N3C(=O)N2)cc1 (centres undefined)
  z-score: -0.39 (inactive)
  cell count: 2940 cells

## O=C1/C(=C/c2ccc(N3CCCC3)cc2)NC(=S)N1C1CC1
  z-score: 0.41
  cell count: 2770 cells

## N#C/C(=C\C1=C(N2CCOCC2)C(=C/c2cccc([N+](=O)[O-])c2)/CC1)C(=O)Nc1ccccc1F
  z-score: -0.32 (inactive)
  cell count: 2940 cells

## CC(C)N1CCc2c(sc(NC(=O)c3cc4cc([N+](=O)[O-])ccc4s3)c2C(N)=O)C1
  z-score: -0.23 (inactive)
  cell count: 177 cells

## COc1cc(S(=O)(=O)N2CCOCC2)ccc1NC(=O)COC(=O)C12CC3CC(CC(C3)C1)C2
  z-score: -0.39 (inactive)
  cell count: 3410 cells

## Cc1cc(C)cc(-n2c(=O)c3sccc3n(CC(=O)NCc3ccco3)c2=O)c1
  z-score: -0.39 (inactive)
  cell count: 3120 cells

## Cc1c(C(=O)O)cccc1-c1ccc(/C=C2/NC(=O)N(c3ccccc3)C2=O)o1
  z-score: -0.39 (inactive)
  cell count: 3120 cells

## Cc1ccnc(N2C(=O)c3cccc4c([N+](=O)[O-])ccc(c34)C2=O)c1
  z-score: 0.09
  cell count: 350 cells

## COC(=O)C1=C(N)n2c(s/c(=C\c3cccnc3)c2=O)=C(C(=O)OC)C1c1cccnc1 (centres undefined)
  z-score: -0.25 (inactive)
  cell count: 2640 cells

## OC1(c2cn(Cc3ccccc3)nn2)CCCCC1
  z-score: -0.33 (inactive)
  cell count: 3100 cells

## O=C(NC1(C(F)(F)F)NC(=O)N(c2ccc(F)c(Cl)c2)C1=O)c1ccncc1 (centres undefined)
  z-score: -0.39 (inactive)
  cell count: 3240 cells

## COc1ccc(OCCn2cc(/C(N)=N/O)c3ccccc32)cc1
  z-score: -0.33 (inactive)
  cell count: 2930 cells

## CCOC(=O)N1CCN(S(=O)(=O)c2ccc3c(c2)oc(=O)n3C)CC1
  z-score: -0.31 (inactive)
  cell count: 2780 cells

## O=C(COc1ccc(Cl)cc1)NCc1nnc(SCC(=O)NC2CCCCC2)o1
  z-score: -0.32 (inactive)
  cell count: 3660 cells

## Cc1ccc(S(=O)(=O)N2CCCC2C(=O)N(C)Cc2cccs2)cc1 (centres undefined)
  z-score: -0.39 (inactive)
  cell count: 3120 cells

## CC(C)C1S/C(=N/N=C/c2ccco2)NC1=O (centres undefined)
  z-score: -0.33 (inactive)
  cell count: 3160 cells

## CCC(C)N1C(=O)/C(=C/c2c(NCCCOC(C)C)nc3c(C)cccn3c2=O)SC1=S (centres undefined)
  z-score: 1.19
  cell count: 2350 cells

## Cc1nnc(NC(=O)c2sc3nc(-c4cccs4)cc(C(F)(F)F)c3c2N)s1
  z-score: 0.85
  cell count: 2610 cells

## CC(C)OC(=O)CN1C(=O)S/C(=C/c2ccc(N3CCCCC3)o2)C1=O
  z-score: 0.56
  cell count: 2120 cells

## O=S(=O)(Nc1cc2nc3ccccc3nc2n1Cc1ccccc1)c1ccc(Cl)cc1
  z-score: 0.09
  cell count: 777 cells

## N#C/C(=C\C1=C(N2CCOCC2)C(=C\c2ccc(Cl)cc2)/CC1)C(=O)Nc1ccccc1F
  z-score: -0.24 (inactive)
  cell count: 3010 cells

## COc1cccc(NC(=O)N2CCN(c3nnnn3-c3ccccc3)CC2)c1
  z-score: -0.33 (inactive)
  cell count: 2880 cells

## O=C1S/C(=C/c2ccc(N3CCOCC3)o2)C(=O)N1Cc1ccc(F)cc1
  z-score: 0.51
  cell count: 3300 cells

## O=C1/C(=C/c2ccc(N3CCOCC3)o2)SC(=Nc2ccccc2)N1CCc1c[nH]c2ccccc12
  z-score: 2.67
  cell count: 192 cells

## O=C(/C=C/c1ccco1)NC(=S)Nc1ccccc1N1CCCC1
  z-score: -0.39 (inactive)
  cell count: 2690 cells

## O=C(COC(=O)c1ccco1)NCC1CCCO1 (centres undefined)
  z-score: -0.39 (inactive)
  cell count: 2790 cells

## CC(C)(C)C(=O)c1sc2nc(-c3cccs3)cc(C(F)(F)F)c2c1N
  z-score: -0.22 (inactive)
  cell count: 2740 cells

## CC(C)N1CCc2c(sc(NC(=O)c3ccc(S(=O)(=O)N4CCc5ccccc54)cc3)c2C(N)=O)C1
  z-score: 0.77
  cell count: 1390 cells

## CCOC(=O)COc1ccc(C(=O)NC2CCCCC2)cc1
  z-score: -0.38 (inactive)
  cell count: 3240 cells

## Oc1ccc(Cl)cc1C1=Nc2ccccc2N=C(c2ccco2)C1
  z-score: -0.35 (inactive)
  cell count: 2660 cells

## Cc1cccc(Oc2nccc(C(F)(F)F)c2C(=O)Nc2ccc(F)cc2F)c1
  z-score: -0.39 (inactive)
  cell count: 3510 cells

## Cc1ccc(C(=O)NCCCn2ccnc2)cc1[N+](=O)[O-]
  z-score: -0.39 (inactive)
  cell count: 3010 cells

## N/C(=N\OC(=O)C1CCCCC1)c1cccc([N+](=O)[O-])c1
  z-score: -0.33 (inactive)
  cell count: 3090 cells

## COC(=O)c1sc2ccccc2c1-n1cccc1C(=O)C(=O)Nc1ccc(F)cc1
  z-score: -0.38 (inactive)
  cell count: 3000 cells

## c1ccc(-c2csc(-n3cnnn3)n2)cc1
  z-score: -0.38 (inactive)
  cell count: 3240 cells

## CCN(CC)c1ccc2cc(C#N)c(=O)oc2c1
  z-score: -0.32 (inactive)
  cell count: 3390 cells

## O=Cc1sc(Nc2ccccc2)nc1Cl
  z-score: -0.31 (inactive)
  cell count: 3150 cells

## N#C/C(=C/c1ccc(N2CCCCC2)o1)C(=O)Nc1ccc2ccccc2c1
  z-score: 5.59
  cell count: 3000 cells

## Nc1c(C(=O)Nc2nccs2)sc2nc(-c3cccs3)cc(C(F)(F)F)c12
  z-score: 0.39
  cell count: 2940 cells

## O=C1C2C3C=CC(C3)C2C(=O)N1CCc1ccccc1 (centres undefined)
  z-score: -0.33 (inactive)
  cell count: 3430 cells

## CC(=Nc1ccc(C)cc1C)c1sc2ccccc2c1O
  z-score: -0.3 (inactive)
  cell count: 2760 cells

## CCOC(=O)c1c(-c2ccc(C)cc2)csc1NC(=O)/C(C#N)=C/c1ccc(O)c(OC)c1
  z-score: -0.3 (inactive)
  cell count: 2890 cells

## CC(C)(C)C(=O)/C=c1\s/c(=C\c2ccc(-c3ccc([N+](=O)[O-])cc3)o2)c(=O)n1CC(=O)NC(N)=O
  z-score: 4.23
  cell count: 3110 cells

## O=C(NN=C1CCN(Cc2ccccc2)CC1)c1cccc(S(=O)(=O)Nc2ccccc2Cl)c1
  z-score: -0.38 (inactive)
  cell count: 3200 cells

## O=C(COc1ccccc1)N1CCN=C1c1ccccc1
  z-score: -0.33 (inactive)
  cell count: 3190 cells

## COc1ccc(/C=C(\C#N)C(=O)OCC(=O)Nc2c(C)cccc2C(C)C)cc1
  z-score: -0.39 (inactive)
  cell count: 2950 cells

## CN1CCN(C2=CC3=CC(=C(C#N)C#N)CCC3CC2)CC1 (centres undefined)
  z-score: 0.91
  cell count: 2810 cells

## CN1C(=S)N(c2cccnc2)C(=O)/C1=C\c1ccc(N(C)C)cc1
  z-score: -0.22 (inactive)
  cell count: 3030 cells

## CN(C)c1ccc(C(=O)N/N=C/c2cc(Br)cc(Br)c2O)cc1
  z-score: -0.38 (inactive)
  cell count: 2500 cells

## Cc1nn(-c2ccccc2)c(C)c1NC(=O)CCl
  z-score: -0.33 (inactive)
  cell count: 1910 cells

## CC(=O)Oc1ccc2c(c1)Oc1cc(OC(C)=O)ccc1C21OC(=O)c2ccccc21
  z-score: 4.32
  cell count: 3270 cells

## CCC(=O)Nc1ccc(C(=O)OCC(=O)c2ccc(C)c([N+](=O)[O-])c2)cc1
  z-score: -0.33 (inactive)
  cell count: 2960 cells

## CCn1c(Cn2nnc(-c3ccccc3)n2)nnc1SCC(=O)Nc1ccc(C(C)=O)cc1
  z-score: -0.33 (inactive)
  cell count: 3180 cells

## Cc1cc(N2C(=O)c3ccccc3C2=O)n(C)n1
  z-score: -0.39 (inactive)
  cell count: 2960 cells

## CCN1/C(=C/C=C/c2oc3ccc4ccccc4c3[n+]2CC)Oc2ccc3ccccc3c21
  z-score: 1.7
  cell count: 330 cells

## O=C(NC1C=CS(=O)(=O)C1)c1sc2ccccc2c1Cl (centres undefined)
  z-score: -0.38 (inactive)
  cell count: 2120 cells

## CN(C)S(=O)(=O)Oc1cccc(C(=O)Nc2ccc([N+](=O)[O-])cc2)c1
  z-score: -0.33 (inactive)
  cell count: 2460 cells

## CCN(CCNC(=O)C1CCCN(S(=O)(=O)CC)C1)c1ccccc1 (centres undefined)
  z-score: -0.33 (inactive)
  cell count: 3430 cells

## CCN1C(=O)CSc2ccc(C(=O)NCc3ccccc3OC)cc21
  z-score: -0.33 (inactive)
  cell count: 2980 cells

## COc1ccc2c(C(=O)CN(C)C3CCCCC3)c[nH]c2c1
  z-score: -0.37 (inactive)
  cell count: 3190 cells

## CCCCn1c(=O)[nH]c2nc3cc(N)ccc3nc2c1=O
  z-score: -0.32 (inactive)
  cell count: 3540 cells

## COc1ccc(-c2ccc3c(N)c(C(=O)c4cccc(OC)c4)sc3n2)cc1
  z-score: -0.24 (inactive)
  cell count: 2850 cells

## CC(=O)Nc1nc(-c2ccc(Br)s2)cs1
  z-score: -0.39 (inactive)
  cell count: 3320 cells

## Nc1cccc2c1C(=O)N(C(=O)c1cccc(S(=O)(=O)N3CCCC3)c1)C2=O
  z-score: -0.39 (inactive)
  cell count: 3320 cells

## Cc1ccc(N=C2NC(=O)/C(=C/c3cn(C)c4ccccc34)S2)cc1C
  z-score: -0.23 (inactive)
  cell count: 2580 cells

## N#Cc1c2c(c(-n3cnc4ccccc43)n3c1nc1ccccc13)CCC2
  z-score: -0.25 (inactive)
  cell count: 3100 cells

## Cc1ccc2[nH]c(-c3ccccc3)c(CN(C)C)c(=O)c2c1
  z-score: -0.33 (inactive)
  cell count: 3240 cells

## CCOC(=O)CC1C(=O)NCCN1c1nc2ccc(C)cn2c(=O)c1/C=C1\SC(=S)N(C(C)CC)C1=O (centres undefined)
  z-score: -0.02
  cell count: 2960 cells

## N#C/C(=C/c1ccc(N2CCOCC2)o1)c1nc2ccccc2[nH]1
  z-score: 0.11
  cell count: 2960 cells

## O=C1S/C(=C\c2ccc(N3CCOCC3)o2)C(=O)N1Cc1ccc(F)cc1
  z-score: 1.17
  cell count: 665 cells

## COc1cccc(S(=O)(=O)NCc2ccc(C(=O)Nc3ccc(Cl)c(Cl)c3)cc2)c1
  z-score: -0.33 (inactive)
  cell count: 2580 cells

## CCCS(=O)(=O)N1CCC(C(=O)N2CCOCC2)CC1
  z-score: -0.38 (inactive)
  cell count: 2930 cells

## CC1CC(C)CN(C(=O)c2cccc3c2-c2ccccc2C3=O)C1 (centres undefined)
  z-score: -0.38 (inactive)
  cell count: 3240 cells
